Laboratory results reported in article PMC4026528 (PLoS ONE, 2014).

Test system: HT-1080 cells
Experiment: Scratch assay (motility), HT-1080
Format: cell-based, human
Details: HT-1080, 20 hours
Protocol: Soft agar assay and analysis was carried out as previously described. For scratch assay, confluent monolayer of U2OS and HT-1080 cells were subjected to scratch using a sterile pipette tip. Wounded monolayers were washed to remove debris and incubated with SEN461 at different concentrations for 20 hours. After the incubation period, images were taken under an Axiovert 200M (Zeiss) microscope equipped with a CCD camera, and the gap width was measured using MetaMorph 6.3 software (Universal Imaging Corp.) to calculate the area covered by cells (pixels unit). The tube formation assay was performed using growth factor-reduced Matrigel from BD (BD Biosciences; San Jose, CA, USA). Matrigel was thawed overnight at 4°C and was diluted (1∶1) with phenol red-free DMEM without serum. 100 µl of the diluted matrigel was used to coat the wells of a 96 well plate and was allowed to polymerize for 2 hours at 37°C. After equilibrating the gel with the complete growth medium, 15×10^3 cells were seeded in each well and incubated for 20 hours. The tube formation was monitored under a phase contrast microscope (Axiovert 200, Zeiss) and imaged using MetaMorph system (Universal Imaging Corp).

With `COCC(=O)N1CCN(C(=O)C2CCC(Cn3c(=O)c4cc(OC)ccc4n(C)c3=O)CC2)CC1` (stereo not shown) [SEN461] the “cellular motility (two-dimensional scratch assay)” value was “neither U2OS nor HT-1080 cells showed inhibition of motility”.
